Among the data in patent US7029846B2, “Site-specific protein modification” (University of Medicine and Dentistry of New Jersey, priority 2000, dated 2006) are Kd values, retold here.

Starred links: 1 amine or outer side, 2 acyl side, 3 side chain; linkers in the order of their positions; H or OH if unused. Non-standard residues stand in square brackets, D forms with d. No end group written: not given here. Tyr(3-Ac) = 3-acetyl-tyrosine, CC(=O)c1cc(C[C@H](N[*:1])C(=O)[*:2])ccc1O[*:3]

This assay addresses rhodamine labeled TAR RNA (TAR-Rh). Briefly: FRET fluorescence quenching titration of fluorescein labeled Tat peptide with rhodamine labeled TAR RNA. Type of assay: binding, HIV-1. The note with it: quenching of Tat-Fl (5 nM) emission at 512 nm with increasing TAR-Rh, 50 mM Tris-HCl, pH 7.4 at 25° C., 20 mM KCl, fit to quadratic equation (1), read-out: dissociation constant (KD). The procedure: FIG. 2(B). Fluorescence intensity of Tat-Fl (5 nM) at 512 nm in the presence of increasing TAR-Rh concentrations. The solid line represents the best fits of the data by nonlinear regression to quadratic equation (1). The fluorescence measurements were performed on PTI fluorescence spectrophotometer controlled by Felix software. The excitation wavelength was 492 nm and slits width was set 3.5 nm for both excitation and emission. All samples were corrected for the light source excitation effect and for the background intensity of buffer fluorescence as well as for dilution factors. Buffer conditions: […] Tris-HCl, pH 7.4 at 25° C., 20 mM KCl.
To determine the binding affinities of a Tat peptide under physiological conditions and test the application of acetyl-Tyr, we developed a fluorescence resonance energy transfer (FRET) system containing TAR RNA and a Tat peptide uniquely labeled with donor and acceptor dye molecules (FIG. 1). […] (Clegg, R. M. (1992) Fluorescence resonance energy transfer and nucleic acids, Methods Enzymol. 211, 353–88; Yang, M., and Millar, D. P. (1997) Fluorescence resonance energy transfer as a probe of DNA structure and function, Methods Enzymol. 278, 417–444). The donor's lifetime and quantum yield are reduced upon energy transfer, and the acceptor fluorescence is increased, or sensitized. […]

In the case of “Acetyl-Tyr-Tat peptide: HIV-1 Tat peptide (amino acids 47–56) with Tyr-47 replaced by 3-Acetyl-Tyrosine ([Tyr(3-Ac)]GRKKRRQRR)”, the Kd came to 1 ± 0.5 nM.

Broadly, the Kd is the constant that tells how readily two partners part at equilibrium.
